Legend:
Format in all cases: in vivo
Setaria faberi = assay: greenhouse pre-emergence herbicidal test; details: scale 0 to 100
Excerpt: (§1) The culture containers used were plastic flowerpots containing loamy sand with approximately 3.0% of humus as the substrate. The seeds of the test plants were sown separately for each species.
(§2) For the pre-emergence treatment, the active ingredients, which had been suspended or emulsified in water, were applied directly after sowing by means of finely distributing nozzles.
(§3) The containers were irrigated gently to promote germination and growth and subsequently covered with transparent plastic hoods until the plants had rooted. This cover caused uniform germination of the test plants, unless this had been impaired by the active ingredients.
(§4) Depending on the species, the plants were kept at 10-25° C. or 20-35° C., respectively.
(§5) The test period extended over 2 to 4 weeks. During this time, the plants were tended, and their response to the individual treatments was evaluated.
(§6) Evaluation was carried out using a scale from 0 to 100. 100 means no emergence of the plants, or complete destruction of at least the aerial moieties, and 0 means no damage, or normal course of growth. A moderate herbicidal activity is given at values of at least 60, a good herbicidal activity is given at values of at least 70, and a very good herbicidal activity is given at values of at least 85.
(§7) The plants used in the greenhouse experiments were of the following species: […]

Echinocloa crus-galli [1] = assay: greenhouse pre-emergence herbicidal test; details: 250 g/ha, scale 0 to 100
Excerpt: as §1, §2, §3, §4, §5, §6, §7

Amaranthus retroflexus [2] = assay: greenhouse pre-emergence herbicidal test; details: scale 0 to 100
Excerpt: The seeds of the test plants were sown separately for each species. For the pre-emergence treatment, the active ingredients, which had been suspended or emulsified in water, were applied directly after sowing by means of finely distributing nozzles. The containers were irrigated gently to promote germination and growth and subsequently covered with transparent plastic hoods until the plants had rooted. This cover caused uniform germination of the test plants, unless this had been impaired by the active ingredients. […] The test period extended over 2 to 4 weeks. During this time, the plants were tended, and their response to the individual treatments was evaluated. Evaluation was carried out using a scale from 0 to 100. 100 means no emergence of the plants, or complete destruction of at least the aerial moieties, and 0 means no damage, or normal course of growth. A moderate herbicidal activity is given at values of at least 60, a good herbicidal activity is given at values of at least 70, and a very good herbicidal activity is given at values of at least 85. The plants used in the greenhouse experiments were of the following species: […]

Alopercurus myosuroides = assay: greenhouse pre-emergence herbicidal test; details: scale 0 to 100
Excerpt: as §1, §2, §3, §4, §5, §6, §7

Apera spica-venti = assay: greenhouse pre-emergence herbicidal test; details: scale 0 to 100
Excerpt: as §1, §2, §3, §4, §5, §6, §7

Lolium multiflorum = assay: greenhouse pre-emergence herbicidal test; details: 250 g/ha, scale 0 to 100
Excerpt: as §1, §2, §3, §4, §5, §6, §7

Amaranthus retroflexus [3] = assay: greenhouse post-emergence herbicidal test; details: 250 g/ha, scale 0 to 100
Excerpt: as §1
(§8) For the post-emergence treatment, the test plants were first grown to a height of 3 to 15 cm, depending on the plant habit, and only then treated with the active ingredients which had been suspended or emulsified in water. For this purpose, the test plants were either sown directly and grown in the same containers, or they were first grown separately as seedlings and transplanted into the test containers a few days prior to treatment.
as §4, §5, §6, §7

Abutilon theophrasti [4] = assay: greenhouse post-emergence herbicidal test; details: 250 g/ha, scale 0 to 100
Excerpt: as §1, §8, §4, §5, §6, §7

Abutilon theophrasti [5] = assay: greenhouse pre-emergence herbicidal test; details: 250 g/ha, scale 0 to 100
Excerpt: as §1, §2, §3, §4, §5, §6, §7

Setaria viridis = assay: greenhouse post-emergence herbicidal test; details: 250 g/ha, scale 0 to 100
Excerpt: as §1, §8, §4, §5, §6, §7

Echinocloa crus-galli [6] = assay: greenhouse post-emergence herbicidal test; details: 250 g/ha, scale 0 to 100
Excerpt: as §1, §8, §4, §5, §6, §7

| SMILES | herbicidal activity (Setaria faberi; 250 g/ha) [%] | herbicidal activity (Echinocloa crus-galli [1]) [%] | herbicidal activity (Amaranthus retroflexus [2]; 250 g/ha) [%] | herbicidal activity (Alopercurus myosuroides; 250 g/ha) [%] | other results |
| --- | --- | --- | --- | --- | --- |
| CC(F)c1nc(N)nc(Nc2c(F)ncc(F)c2Cl)n1 (racemic) [Example 8] | 100 | 90 | 100 | – | – |
| CCCC(F)c1nc(N)nc(Nc2c(F)ncc(F)c2Cl)n1 (racemic) [Example 13] | 100 | 100 | 100 | – | – |
| Nc1nc(Nc2c(F)ncc(F)c2Cl)nc(C(F)C2CCCC2)n1 (racemic) [Example 20] | 100 | – | 100 | 100 | – |
| CC(C)(C)c1nc(N)nc(Nc2c(F)ncc(F)c2Cl)n1 [Example 2, 6-tert-butyl-N4-(4-chloro-2,5-difluoro-3-pyridyl)-1,3,5-triazine-2,4-diamine] | – | – | – | – | herbicidal activity (Apera spica-venti; 125 g/ha): 90%; herbicidal activity (Amaranthus retroflexus [2]; 125 g/ha): 100% |
| CC(C)(F)c1nc(N)nc(Nc2c(F)ncc(F)c2Cl)n1 [Example 4] | – | 100 | 100 | 100 | – |
| Nc1nc(Nc2c(F)ncc(F)c2Cl)nc(C2CCCC2)n1 [Example 6] | – | – | 90 | 80 | – |
| CC(C)(C)c1nc(N)nc(Nc2c(F)ncc(F)c2Cl)n1 [Example 7, 6-tert-butyl-N4-(4-chloro-2,5-difluoro-3-pyridyl)-1,3,5-triazine-2,4-diamine] | 95 | – | 90 | 98 | – |
| CC1(c2nc(N)nc(Nc3c(F)ncc(F)c3Cl)n2)CCC1 [Example 9] | – | 100 | 100 | 100 | – |
| COC1(c2nc(N)nc(Nc3c(F)ncc(F)c3Cl)n2)CCCC1 [Example 10] | – | – | 100 | 100 | herbicidal activity (Lolium multiflorum): 95% |
| Nc1nc(Nc2c(F)ncc(F)c2Cl)nc(C2(F)CCCCC2)n1 [Example 11] | 100 | – | 100 | 100 | – |
| Nc1nc(Nc2c(F)ncc(F)c2Cl)nc(C2(F)CCCC2)n1 [Example 12] | 100 | 98 | 100 | – | – |
| CC1(c2nc(N)nc(Nc3c(F)ncc(F)c3Cl)n2)CCCC1 [Example 14] | – | – | 85 | – | – |
| Nc1nc(Nc2c(F)ncc(F)c2Cl)nc(C2(F)CC=CC2)n1 [Example 19] | 100 | 100 | 100 | – | – |
| Nc1nc(Nc2c(F)ncc(F)c2Cl)nc(C2(Cl)CCCC2)n1 [Example 21] | 95 | – | 100 | – | – |
| CC1CCC(c2nc(N)nc(Nc3c(F)ncc(F)c3Cl)n2)CC1 (centres unmarked) [Example 23] | – | – | 95 | – | – |
| CC(C)(C#N)c1nc(N)nc(Nc2c(F)ncc(F)c2Cl)n1 [Example 28] | – | – | 100 | – | – |
| Nc1nc(Nc2c(F)ncc(F)c2Cl)nc(C2(F)CC2)n1 [Example 31] | – | 100 | 100 | 100 | – |
| Cc1nc(F)c(Nc2nc(N)nc(C(C)(C)F)n2)c(Cl)c1F [Example 32, N4-(4-Chloro-2,5-difluoro-6-methyl-3-pyridyl)-6-(1-fluoro-1-methyl-ethyl)-1,3,5-triazine-2,4-diamine] | – | 85 | 100 | 90 | – |
| CC1(c2nc(N)nc(Nc3c(F)ncc(F)c3Cl)n2)CC1 [Example 33] | – | – | 98 | – | – |

| SMILES | herbicidal activity (Setaria faberi; 250 g/ha) [%] | herbicidal activity (Echinocloa crus-galli [1]) [%] | herbicidal activity (Amaranthus retroflexus [2]; 250 g/ha) [%] | herbicidal activity (Alopercurus myosuroides; 250 g/ha) [%] | other results |
| --- | --- | --- | --- | --- | --- |
| CC(C)(F)c1nc(N)nc(Nc2c(F)ncc(F)c2Br)n1 [Example 35] | – | 100 | 100 | 100 | – |
| CC(C)(Cl)c1nc(N)nc(Nc2c(F)ncc(F)c2Cl)n1 [Example 36] | 100 | – | 100 | 100 | – |
| CCCC(F)(F)c1nc(N)nc(Nc2c(F)ncc(F)c2Cl)n1 [Example 37] | 100 | – | 100 | 100 | – |
| CC(C)CC(F)(F)c1nc(N)nc(Nc2c(F)ncc(F)c2Cl)n1 [Example 38] | 90 | – | 100 | – | – |
| CC(C)(CO)c1nc(N)nc(Nc2c(F)ncc(F)c2Cl)n1 [Example 40] | 95 | – | 100 | 90 | – |
| CC(C)(F)c1nc(N)nc(Nc2c(F)ncc(F)c2I)n1 [Example 41] | 100 | – | 100 | 98 | – |
| Nc1nc(Nc2c(F)ncc(F)c2Br)nc(C2(F)CCCC2)n1 [Example 43] | 100 | – | 100 | 100 | – |
| CCCc1nc(F)c(Nc2nc(N)nc(C(C)(C)F)n2)c(Cl)c1F [Example 44] | – | – | 100 | – | – |
| CCCC(F)c1nc(N)nc(Nc2c(F)ncc(F)c2Br)n1 (centres unmarked) [Example 46] | 100 | – | 100 | 98 | – |
| Nc1nc(Nc2c(Cl)ccnc2Cl)nc(C2(F)CCCC2)n1 [Example 47] | 100 | – | 100 | – | herbicidal activity (Lolium multiflorum): 100% |
| C#CC(C)(F)c1nc(N)nc(Nc2c(F)ncc(F)c2Cl)n1 (centres unmarked) [Example 48] | 100 | 98 | 100 | – | – |
| Nc1nc(Nc2c(F)ncc(F)c2Br)nc(C2(F)CCCCC2)n1 [Example 51] | 100 | – | 100 | 100 | – |
| CCC(F)(CC)c1nc(N)nc(Nc2c(F)ncc(F)c2Br)n1 [Example 52] | 100 | 100 | 100 | – | – |
| Cc1ccnc(Cl)c1Nc1nc(N)nc(C(C)(C)F)n1 [Example 53] | 95 | – | 100 | – | herbicidal activity (Amaranthus retroflexus [3]): 98%; herbicidal activity (Abutilon theophrasti [4]): 80%; herbicidal activity (Abutilon theophrasti [5]): 100% |
| Cc1ccnc(F)c1Nc1nc(N)nc(C2(F)CCCC2)n1 [Example 54] | 100 | – | 100 | – | herbicidal activity (Setaria viridis): 80%; herbicidal activity (Apera spica-venti; 250 g/ha): 98% |
| N#Cc1ccnc(Cl)c1Nc1nc(N)nc(C2(F)CCCC2)n1 [Example 60] | – | 85 | 98 | – | herbicidal activity (Amaranthus retroflexus [3]): 80%; herbicidal activity (Abutilon theophrasti [4]): 95%; herbicidal activity (Apera spica-venti; 250 g/ha): 95% |
| Nc1nc(Nc2c(F)ncc(F)c2Br)nc(C(F)C2CCCC2)n1 (centres unmarked) [Example 61] | 100 | – | 100 | 90 | – |
| CC(C)(F)c1nc(N)nc(Nc2c(F)nc(F)c(F)c2OCC(F)(F)F)n1 [Example 65] | – | – | 100 | – | herbicidal activity (Echinocloa crus-galli [6]): 95%; herbicidal activity (Amaranthus retroflexus [3]): 100%; herbicidal activity (Abutilon theophrasti [4]): 100%; herbicidal activity (Apera spica-venti; 250 g/ha): 100% |
| Nc1nc(Nc2c(F)nc(F)c(F)c2Cl)nc(C2(F)CCCC2)n1 [Example 69] | – | – | – | – | herbicidal activity (Setaria faberi; 125 g/ha): 100%; herbicidal activity (Alopercurus myosuroides; 125 g/ha): 100%; herbicidal activity (Amaranthus retroflexus [2]; 125 g/ha): 100% |

From patent US11388901B2, “Herbicidal azines” (BASF SE, priority 2017, dated 2022)
